Laboratory results: patent US20090124675A1, “INHIBITORS OF ANTI-APOPTOTIC PROTEINS” (Burnham Institute for Medical Research, priority 2007, published 2009)
“Also recorded” adds a separate entry of the source.

Columns and labels:
BCL-XL [1] = molecular target: T1, BCL-XL (Homo sapiens, UniProt Q07817); assay: Inhibition evaluated by measuring dissociation constant (Kd); format: binding
T1 construct: Recombinant full length BCL-XL was produced; poly-His (N); made in house; host or cells: E. coli BL21
T1 sequence (Q07817 whole entry, species assumed): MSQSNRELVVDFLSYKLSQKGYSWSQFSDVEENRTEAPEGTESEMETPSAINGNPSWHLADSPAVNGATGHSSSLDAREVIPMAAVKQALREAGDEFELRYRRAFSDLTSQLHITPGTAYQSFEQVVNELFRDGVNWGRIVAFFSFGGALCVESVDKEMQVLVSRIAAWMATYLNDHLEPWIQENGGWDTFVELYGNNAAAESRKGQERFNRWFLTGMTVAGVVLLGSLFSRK
Protocol: (§1) Predicted binding mode of some compounds of the present invention to a BCL-2 protein is illustrated by FIG. 1 (binding of compound 11 shown below), FIG. 2A (binding of compound 1 shown above), and FIG. 2B (binding of compound 2 shown above). […] FIG. 4 and FIG. 5 show such NMR data for compounds 6 and 7 shown above. The inhibition was also evaluated by measuring dissociation constant (Kd) values for some compounds of the invention.

B6BCL-2 transgenic mouse = assay: In vivo test in the B6BCL-2 transgenic mouse; settings: for In vivo activity compared with known compounds / Order of potency in terms of in vivo efficacy: B6BCL-2 transgenic mouse; for Order of potency in terms of in vivo efficacy / Order of severity of toxic effect: rank order; for Order of severity of toxic effect: diminishing severity
Protocol: Some compounds of the invention were also tested in vivo in the B6BCL-2 transgenic mouse. […] Gossypol is described, e.g., in U.S. Pat. No. 7,186,708. Apogossypol is described, e.g., in Meyers A. I.; Willemsen J. J., Tetrahedron Letters, vol. 37, No. 6, February, […], pp. 791-792.

BCL-XL [2] = molecular target: T1, BCL-XL; assay: NMR spectroscopy binding test (1D 1H / 2D [15N,1H]-HSQC); settings: NMR data, FIGS. 3-5; negative control
Protocol: as §1
For all NMR experiments, BCL-xL was exchanged into 50 mM phosphate buffer at pH 7.5 and measurements were performed at 30° C. 2D [^15N,^1H]-HSQC spectra for BCL-xL were measured with 0.5 mM samples of ^15N-labeled protein. All experiments were performed with a 600 MHz Bruker Avance spectrometer, both equipped with either a TXI probe or a TCI cryoprobe. In all experiments, dephasing of residual water signals was obtained with a WATERGATE sequence. In order to test the ability of test compounds to bind to Bcl-xL, a 25 μM sample of the protein was prepared and 1D ^1H NMR spectra were collected in absence and presence of test compounds. By observing the aliphatic region of the spectra, binding can be readily detected in these simple experiments due to chemical shift changes in active site methyl groups of Ile, Leu, Thr, Val or Ala (region between 0.8 and 0.3 ppm).

Triplet B6Bcl2 mice = assay: Delivery of Epalrestat in vivo, spleen weight in Triplet B6Bcl2 mice
Protocol: Epalrestat (compound 11) was given to Triplet B6Bcl2 mice at a daily dose of 0.12 mmol/kg for 3 days (i.e., QDX3) through oral gavage. […] Both Epalrestat and the negative control were dissolved in PBS.
After 3 days, the spleens of the animals were removed.

| Kd (BCL-XL [1]) | Molecule | In vivo activity compared with known compounds (B6BCL-2 transgenic mouse) | Order of potency in terms of in vivo efficacy (B6BCL-2 transgenic mouse) | Order of severity of toxic effect (B6BCL-2 transgenic mouse) | further results |
| --- | --- | --- | --- | --- | --- |
| 1 µM | CC(=C\c1ccccc1)/C=C1/SC(=S)N(C(C(=O)O)c2ccccc2)C1=O (stereo not shown) [Compound 1, 2-[5-(2-methyl-3-phenylallylidene)-4-oxo-2-thioxothiazolidin-3-yl]-2-phenylacetic acid] | – | – | – | – |
| – | apogossypolone | not effective at all | – | – | – |
| 10.6 µM | CC(C)C(C(=O)O)N1C(=O)C(=CC=Cc2ccccc2)SC1=S (stereo not shown) [Compound 9, 3-methyl-2-[4-oxo-5-(3-phenylallylidene)-2-thioxothiazolidin-3-yl]butanoic acid] | – | – | – | – |
| – | COc1cc2cc(C=C3SC(=S)N(C(C(=O)O)C(C)C)C3=O)c(C)cc2c(C(C)C)c1OC (stereo not shown) [Compound 3, 2-[5-(1-isopropyl-2,3-dimethoxy-7-methylnaphthalen-6-yl-methylene)-4-oxo-2-thioxothiazolidin-3-yl]-3-methylbutanoic acid] | equal to, or better than, known compounds gossypol and apogossypol | compound 11>compound 5>compound 3=apogossypol=gossypol | gossypol>>>apogossypol>compound 5=compound 3=compound 11 | – |
| – | COc1c(C=C2SC(=S)N(C(C(=O)O)C(C)C)C2=O)cc2ccccc2c1OC (stereo not shown) [Compound 7, 2-[5-((1,2-dimethoxynaphthalen-3-yl)methylene)-4-oxo-2-thioxothiazolidin-3-yl]-3-methylbutanoic acid] | – | – | – | Binding to BCL-XL by NMR (BCL-XL [2]): binding had occurred |
| – | Cc1cc2c(C(C)C)c(O)c(O)c(C=O)c2c(O)c1-c1c(C)cc2c(C(C)C)c(O)c(O)c(C=O)c2c1O [gossypol] | – | – | gossypol>>>apogossypol>compound 5=compound 3=compound 11 | – |
| – | Cc1cc2c(C(C)C)c(O)c(O)cc2c(O)c1-c1c(C)cc2c(C(C)C)c(O)c(O)cc2c1O [apogossypol] | – | compound 11>compound 5>compound 3=apogossypol=gossypol | gossypol>>>apogossypol>compound 5=compound 3=compound 11 | – |
| 34.4 µM | CC(C(=O)O)N1C(=O)C(=CC=Cc2ccccc2)SC1=S (stereo not shown) [Compound 10, 2-[4-oxo-5-(3-phenylallylidene)-2-thioxothiazolidin-3-yl]propanoic acid] | – | – | – | – |
| – | CC(C)C(C(=O)O)N1C(=O)C(=CC2=C(Br)c3cc(O)c(O)cc3CC2)SC1=S (stereo not shown) [Compound 6, 2-[5-((4-bromo-1,2-dihydro-6,7-dihydroxynaphthalen-3-yl)methylene)-4-oxo-2-thioxothiazolidin-3-yl]-3-methylbutanoic acid] | – | – | – | Binding to BCL-XL by NMR (BCL-XL [2]): binding had occurred |
| – | COc1cc2c(cc1OC)C(Br)=C(C=C1SC(=S)N(C(C(=O)O)C(C)C)C1=O)CC2 (stereo not shown) [Compound 5, 2-[5-((4-bromo-1,2-dihydro-6,7-dimethoxynaphthalen-3-yl)methylene)-4-oxo-2-thioxothiazolidin-3-yl]-3-methylbutanoic acid] | equal to, or better than, known compounds gossypol and apogossypol | compound 11>compound 5>compound 3=apogossypol=gossypol | gossypol>>>apogossypol>compound 5=compound 3=compound 11 | – |
| 5.7 µM | CC(=C\c1ccccc1)/C=C1/SC(=S)N(C(C(=O)O)C(C)C)C1=O (stereo not shown) [Compound 2, 3-methyl-2-[5-(2-methyl-3-phenylallylidene)-4-oxo-2-thioxothiazolidin-3-yl]butanoic acid] | – | – | – | – |

| Molecule | Kd (BCL-XL [1]) | In vivo activity compared with known compounds (B6BCL-2 transgenic mouse) | Order of potency in terms of in vivo efficacy (B6BCL-2 transgenic mouse) | Order of severity of toxic effect (B6BCL-2 transgenic mouse) | further results |
| --- | --- | --- | --- | --- | --- |
| CC(=Cc1ccccc1)C=C1SC(=S)N(CC(=O)O)C1=O [Compound 11, 2-[5-(2-methyl-3-phenylallylidene)-4-oxo-2-thioxothiazolidin-3-yl]acetic acid] | 11.8 µM | equal to, or better than, known compounds gossypol and apogossypol | compound 11>compound 5>compound 3=apogossypol=gossypol | gossypol>>>apogossypol>compound 5=compound 3=compound 11 | Binding to BCL-XL by NMR (BCL-XL [2]): binding had occurred; Shrinkage of spleen (Triplet B6Bcl2 mice; dosed orally or intraperitoneally): induced shrinkage of spleen whether dosed orally or intraperitoneally; Weight loss or signs of toxicity via physical exam (Triplet B6Bcl2 mice; intraperitoneal and oral routes, listed as Epalrestat): no weight loss or signs of toxicity via physical exam; also recorded: qualitatively safer than ApoG; Spleen Weight (Triplet B6Bcl2 mice; oral gavage, 0.12 mmol/kg daily for 3 days (QDX3), in PBS, spleens removed after 3 days): 193.9 mg; % spleen shrinkage, intraperitoneal versus oral dosing (Triplet B6Bcl2 mice; route comparison): Intraperitoneal injection induced more % shrinkage than oral dosing |
